From publication PMC8522630 (Cell, 2021)

What was measured:
[1] = biological target: H-2K^b (Mus musculus, UniProt P01901, A160C/Y105C); assay: Differential Scanning Fluorimetry of pMHC thermal melting; format: binding; settings: DSF, 50 mM HEPES pH 7.5, SYPRO Orange; Tm averaged from 3 experiments; compared to mLAMA4
[2] = test system: antigen-specific CD8 T cells in KP lung adenocarcinoma; format: in vivo, mouse; settings: 5–6 weeks; for CD8 T cell response magnitude, antigen expressed alone: LucA (mALG8) or LucL (mLAMA4); for proportion of TCF1+ progenitor cells, antigens co-expressed / CD8 T cell response magnitude, antigens co-expressed: LucAL; for CD8 T cell response magnitude, antigens co-expressed: compared to the single-antigen setting

Sequence of H-2K^b (P01901 22-295 Y105C/A160C limits assumed): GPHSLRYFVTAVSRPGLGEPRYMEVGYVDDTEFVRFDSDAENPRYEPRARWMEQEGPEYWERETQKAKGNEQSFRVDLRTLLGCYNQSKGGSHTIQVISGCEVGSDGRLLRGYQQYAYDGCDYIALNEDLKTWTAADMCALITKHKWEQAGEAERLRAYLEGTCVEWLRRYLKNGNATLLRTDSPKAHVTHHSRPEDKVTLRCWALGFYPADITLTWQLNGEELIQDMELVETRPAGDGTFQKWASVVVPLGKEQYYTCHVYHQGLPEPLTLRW
Sequence of H-2K^b (P61769 21-119 partner): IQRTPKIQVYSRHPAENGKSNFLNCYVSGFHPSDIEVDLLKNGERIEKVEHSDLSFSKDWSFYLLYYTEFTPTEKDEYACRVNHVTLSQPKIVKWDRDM

| Sequence | pMHC complex stability (Koff), relative to mLAMA4 [1] | CD8 T cell response magnitude, antigen expressed alone [2] | proportion of TCF1+ progenitor cells, antigens co-expressed [2] | CD8 T cell response magnitude, antigens co-expressed [2] |
| --- | --- | --- | --- | --- |
| ITYTWTRL [mALG8] | similar, but slightly lower affinity and stability | responses of equivalent magnitude | increased for both responses (Figure S3M), trending towards greater enrichment for the mALG8 response | neither response became dominant in terms of T cell expansion, but both decreased in magnitude compared to the single-antigen setting |
| VGFNFRTL [mLAMA4] | – | responses of equivalent magnitude | increased for both responses | neither response became dominant in terms of T cell expansion, but both decreased in magnitude compared to the single-antigen setting |
